The values that follow come from PubChem BioAssay (NCI).

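Exposure lasted 48 hours, with cells grown in 96-well plates and compounds tested at five concentrations. TGI: concentration producing complete growth inhibition.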 Bounds are passed on as bounds.

Among the test systems are SNB-19 CNS; SF-295 CNS; OVCAR-3 ovarian; SK-MEL-5 melanoma; UO-31 renal; SN12C renal; HCC-2998 colon; HCT-15 colon; NCI-H226 lung; HOP-62 NSCLC; CAKI-1 renal; SF-539 CNS; EKVX NSCLC.
Common to all, as to assay: DTP human tumour cell line panel, 48 h

With `O=C1CC2(CCC(O)(c3ccc(Cl)cc3)C(C(=O)c3ccc(Cl)cc3)C2)C(=O)c2ccccc2N1` (configuration not stated), the TGI (commonly the concentration at which net growth stops) was 6.71 µM with SNB-19 CNS; 39.5 µM with SF-295 CNS; above 100 µM with OVCAR-3 ovarian; 43.4 µM with SK-MEL-5 melanoma; 49.9 µM in the assay on UO-31 renal; 24.8 µM with SN12C renal. Also, the TGI is above 100 µM in the assay with HCC-2998 colon; above 100 µM in the assay on HCT-15 colon; above 52.5 µM in the assay on NCI-H226 lung; above 100 µM with HOP-62 NSCLC; above 40.9 µM with CAKI-1 renal; 11.2 µM in the assay on SF-539 CNS. The compound also displayed a concentration for total growth inhibition (TGI) in the assay on EKVX NSCLC above 48.6 µM.

In the case of `COc1ccc(OC)c2nc3c(C(=O)NCCN(C)C)cccc3nc12`, the concentration for total growth inhibition (TGI) in the assay on SNB-19 CNS was above 100 µM; in the assay on SF-295 CNS, 25.6 µM; in the assay on OVCAR-3 ovarian, 42.3 µM; with SK-MEL-5 melanoma, 14.1 µM; in the assay on UO-31 renal, above 84.7 µM; in the assay on SN12C renal, above 36.1 µM. Moreover, the TGI in the assay with HCC-2998 colon is 13.4 µM; in the assay with HCT-15 colon, above 51.5 µM; in the assay on NCI-H226 lung it was 27.5 µM; with HOP-62 NSCLC it was 35.7 µM; with CAKI-1 renal, above 74 µM; with SF-539 CNS, 20 µM. In addition, the TGI in the assay on EKVX NSCLC came out at 22.9 µM.

As to `C/C=C(/C)C(=O)O[C@H]1C(C)=C[C@]23C(=O)[C@@H](C=C(COC(C)=O)[C@@H](O)[C@]12O)[C@H]1[C@@H](C[C@H]3C)[C@@]1(C)OC(=O)/C(C)=C\C`, the concentration for total growth inhibition (TGI) with SNB-19 CNS stood at 5.92 µM; in the assay with SF-295 CNS, 5.01 µM; in the assay with OVCAR-3 ovarian it was 5.99 µM; in the assay with SK-MEL-5 melanoma it was 3.84 µM; with UO-31 renal, 2.16 µM; with SN12C renal, 5.34 µM. The TGI in the assay on HCC-2998 colon turned out to be 5.59 µM; in the assay on HCT-15 colon it was 7.17 µM; in the assay with NCI-H226 lung, 7.52 µM; in the assay with HOP-62 NSCLC it was 5.25 µM; with CAKI-1 renal, 6.14 µM; in the assay with SF-539 CNS, 5.88 µM. In the assay with EKVX NSCLC, this compound yielded a TGI of 6.38 µM.

In the case of `CC(=O)O[C@H]1C(=O)[C@@]2(C)[C@H]([C@H](OC(=O)C3CCCCC3)[C@]3(O)C[C@H](OC(=O)[C@H](O)[C@@H](NC(=O)C4CCCCC4)C4CCCCC4)C(C)=C1C3(C)C)[C@]1(OC(C)=O)CO[C@@H]1C[C@@H]2O`, the TGI with SNB-19 CNS is 13.3 µM; in the assay with SF-295 CNS, 0.176 µM; in the assay with OVCAR-3 ovarian, 0.0355 µM; with SK-MEL-5 melanoma it was 1.12 µM; with UO-31 renal, 6.23 µM; in the assay on SN12C renal, 14.8 µM. The total growth inhibition concentration (TGI) with HCC-2998 colon worked out at 0.27 µM; in the assay with HCT-15 colon, 4.42 µM; with NCI-H226 lung it was 3.88 µM; in the assay on HOP-62 NSCLC it was 0.803 µM; in the assay on CAKI-1 renal it was 8.02 µM; in the assay on SF-539 CNS it was 0.766 µM. This compound showed a TGI in the assay on EKVX NSCLC of 25 µM.

Regarding `Cc1ccc(S(=O)(=O)N2CCCCN(S(=O)(=O)c3ccc(C)cc3)Cc3ccccc3OCCOCCOc3c4cccc3Cc3cccc5c3OCCOCCOc3ccccc3CN(S(=O)(=O)c3ccc(C)cc3)CCCN(S(=O)(=O)c3ccc(C)cc3)Cc3ccccc3OCCOCCOc3c(cccc3C4)Cc3cccc(c3OCCOCCOc3ccccc3C2)C5)cc1`, the TGI with SNB-19 CNS, with SF-295 CNS, with OVCAR-3 ovarian, in the assay with SK-MEL-5 melanoma, with UO-31 renal and with SN12C renal was above 100 µM throughout. Moreover, the TGI with HCC-2998 colon, in the assay with HCT-15 colon, in the assay with NCI-H226 lung, in the assay on HOP-62 NSCLC, in the assay with CAKI-1 renal and with SF-539 CNS was above 100 µM in each case. The TGI in the assay with EKVX NSCLC is above 100 µM.

`CN(C)CCNc1ccc2c(=O)n(CCN(C)C)c(=O)n3c4ccc(N)cc4c(=O)c1c23`: the total growth inhibition concentration (TGI) in the assay with SNB-19 CNS came out at 0.788 µM; in the assay with SF-295 CNS it was 1.07 µM; with OVCAR-3 ovarian, 1.22 µM; with SK-MEL-5 melanoma, 1.37 µM; in the assay on UO-31 renal it was 0.346 µM; with SN12C renal, 0.306 µM. Further, the TGI in the assay on HCC-2998 colon amounted to 0.809 µM; with HCT-15 colon it was 1.08 µM; in the assay on NCI-H226 lung it was 0.573 µM; in the assay on HOP-62 NSCLC, 1.15 µM; in the assay with CAKI-1 renal it was 4.76 µM; in the assay with SF-539 CNS it was 0.482 µM. Also, the TGI in the assay on EKVX NSCLC was found to be 0.593 µM.

For the compound `O=[N+]([O-])C(=C(N1CCOCC1)N1CCOCC1)/C(Cl)=C(\Cl)[N+](=O)[O-]`, the TGI with SNB-19 CNS was above 65.6 µM; in the assay on SF-295 CNS, 36.4 µM; with OVCAR-3 ovarian it was 13.5 µM; with SK-MEL-5 melanoma it was 3.04 µM; in the assay with UO-31 renal, 18 µM; with SN12C renal, 5.92 µM. Also, the TGI with HCC-2998 colon is 39.6 µM; in the assay on HCT-15 colon, 8.18 µM; in the assay with NCI-H226 lung, above 100 µM; in the assay on HOP-62 NSCLC, 29.8 µM; with CAKI-1 renal, 3.04 µM; with SF-539 CNS it was 23.8 µM. Further, the TGI with EKVX NSCLC amounted to 23.2 µM.

Consider `CC1=NN(C(=O)Cc2ccccc2)C(=O)/C1=C\C=C\c1ccccc1`, for which the TGI in the assay with SNB-19 CNS, in the assay with SF-295 CNS, with OVCAR-3 ovarian, with SK-MEL-5 melanoma, in the assay on UO-31 renal and with SN12C renal was above 100 µM throughout. Moreover, the total growth inhibition concentration (TGI) in the assay on HCC-2998 colon, with HCT-15 colon, in the assay on NCI-H226 lung, with HOP-62 NSCLC, with CAKI-1 renal and in the assay on SF-539 CNS was above 100 µM in each case. In the assay with EKVX NSCLC, the TGI was above 100 µM.

Take `O=C(Nc1nc(C23CC4CC(CC(C4)C2)C3)cs1)c1cc2cc(Br)cc(Br)c2oc1=O`: the total growth inhibition concentration (TGI) in the assay on SNB-19 CNS, in the assay on SF-295 CNS, in the assay with OVCAR-3 ovarian, in the assay with SK-MEL-5 melanoma, with UO-31 renal and in the assay on SN12C renal was above 100 µM each time. Moreover, the TGI with HCC-2998 colon, with HCT-15 colon, in the assay with NCI-H226 lung, in the assay on HOP-62 NSCLC, with CAKI-1 renal and with SF-539 CNS was above 100 µM throughout. For the same compound, the concentration for total growth inhibition (TGI) in the assay with EKVX NSCLC is above 100 µM.
